One assay relates to THP-1. The assay is described as follows: THP-1 IC50 assay. The assay is classed as cell-based. The conditions noted are these: Homo sapiens; THP-1 cells.
The test system of assay [1] is IL-1β release upon NLRP3 activation in peripheral blood mononuclear cells (PBMC). The assay is described as follows: PBMC IC50 Determination Assay. The assay is classed as cell-based. The following applies: Homo sapiens; inhibition of IL-1β release; LPS-primed PBMC stimulated with ATP or nigericin. The protocol:
The compounds of the present disclosure were tested for their inhibitory activity against IL-1β release upon NLRP3 activation in peripheral blood mononuclear cells (PBMC).
Protocol A. PBMC were isolated from buffy coats by density gradient centrifugation on Histopaque-1077 (Sigma, cat no. 10771). Isolated cells were seeded into the wells of a 96-well plate and incubated for 3 h with lipopolysaccharide (LPS). Following medium exchange, the compounds of the present disclosure were added (a single compound per well) and the cells were incubated for 30 min. Next, the cells were stimulated either with ATP (5 mM) or nigericin (10 μM) for 1 h and the cell culture media from the wells were collected for further analysis.
The release of IL-1β into the media was determined by a quantitative detection of IL-1β in the media using an IL-1β enzyme-linked immunosorbent assay (ELISA) Ready-SET-Go!, eBioscience cat. No. 88-7261-88. Briefly, in a first step, high affinity binding plates (Corning, Costar 9018 or NUNC Maxisorp Cat No. 44-2404) were coated overnight at 4° C. with specific capture antibody included in the kit (anti-human IL-1β ref. 14-7018-68). Subsequently, plates were blocked with blocking buffer for 1 h at room temperature (rt) and after washing with a buffer (PBS with 0.05% Tween-20) incubated with protein standard and culture media. After 2 h of incubation at rt, plates were washed and incubated with biotinylated detection antibody included in the kit (anti-human IL-1β Biotin ref. 33-7110-68) for 1 h at rt. Plates were washed and incubated with HRP-streptavidin for 30 min at rt and washed again. The signal was developed after addition of 3,3′,5,5′-tetramethylbenzidine-peroxidase (TMB) until colour appeared and the reaction was stopped by 2 M H2SO4. A microplate spectrophotometer (BioTek) was used to detect signals with 450 nm. The detection range of IL-1β ELISA was […].
Protocol B. PBMC were isolated from buffy coats by density gradient centrifugation on Histopaque-1077 (Sigma, cat no. 10771). Isolated cells were seeded into the wells (280,000 cells/well) of a 96-well plate and incubated for 3 h with lipopolysaccharide (LPS, 1 μg/mL diluted 1000× from a 1 mg/mL stock solution). The compounds of the present disclosure were added (a single compound per well) and the cells were incubated for 30 min. Next, the cells were stimulated with ATP (5 mM final concentration diluted 20× from a 100 mM stock solution) for 1 h and the cell culture media from the wells were collected for further analysis.
The release of IL-1β into the media was determined by quantitative detection of IL-1β in the media using HTRF®, CisBio cat. No. 62HIL1BPEH. Briefly, cell culture supernatant were dispensed directly into the assay plate containing antibodies labelled with the HTRF® donor and acceptor. A microplate spectrophotometer (BMG) was used to detect signals at 655 nm and 620 nm. The detection range of IL-1β HTRF® was 39-6500 μg/mL.

SMILES strings stand for the structures. Counter-ions that a name gives are not always drawn. A value given as a limit tells only on which side of the number the result lay.

The source of these data is patent US20250115558A1, “PYRIDAZINE DERIVATIVES AND RELATED USES” (NodThera Limited, priority 2023, published 2025).

Take `Cc1cc(Cl)cc(O)c1-c1ccc(CNc2c(C)noc2C)nn1` [Compound 56, 5-Chloro-2-(6-(((3,5-dimethylisoxazol-4-yl)amino)methyl)pyridazin-3-yl)-3-methylphenol]: the IC50 with THP-1 fell in the range of 1 to 3 µM; in assay [1] it was 0.5 to 1 µM.

On to `Cc1cc([N+](=O)[O-])cc(O)c1-c1ccc(CNC2CCOCC2)nn1` [Compound 57, 3-Methyl-5-nitro-2-(6-(((tetrahydro-2H-pyran-4-yl)amino)methyl)pyridazin-3-yl)phenol hydrochloride], for which the figures for the IC50 (in the assay with THP-1; in assay [1]) were 3 to 10 µM and 1 to 3 µM, respectively.

`Cc1cc(Cl)cc(O)c1-c1ccc(CN(C)[C@@H]2CCOC2)nn1` [Compound 58, (R)-5-Chloro-3-methyl-2-(6-((methyl(tetrahydrofuran-3-yl)amino)methyl)pyridazin-3-yl)phenol]: the IC50 (with THP-1; in assay [1]) was 1 to 3 µM in each case.

For the compound `Cc1cc(Cl)cc(O)c1-c1ccc(CN(C)[C@H]2CCOC2)nn1` [Compound 59, (S)-5-Chloro-3-methyl-2-(6-((methyl(tetrahydrofuran-3-yl)amino)methyl)pyridazin-3-yl)phenol], the IC50 in the assay with THP-1 lay in the range of 0.5 to 1 µM; in assay [1], 1 to 3 µM.

With `CO[C@@H]1CCN(Cc2ccc(-c3c(C)cc(Cl)cc3O)nn2)C1` [Compound 60, (R)-5-Chloro-2-(6-((3-methoxypyrrolidin-1-yl)methyl)pyridazin-3-yl)-3-methylphenol], the IC50 (in the assay on THP-1; in assay [1]) was 1 to 3 µM in each case.

For `CO[C@H]1CCN(Cc2ccc(-c3c(C)cc(Cl)cc3O)nn2)C1` [Compound 61, (S)-5-Chloro-2-(6-((3-methoxypyrrolidin-1-yl)methyl)pyridazin-3-yl)-3-methylphenol], the IC50 (in the assay with THP-1; in assay [1]) was 1 to 3 µM in each case.

As to `Cc1cc(Cl)cc(O)c1-c1ccc(CN2CCCC2=O)nn1` [Compound 62, 1-[[6-(4-chloro-2-hydroxy-6-methyl-phenyl)pyridazin-3-yl]methyl]pyrrolidin-2-one], the IC50 (in the assay with THP-1; in assay [1]) was below 0.5 µM in each case.

As to `Cc1cc(Cl)cc(O)c1-c1ccc(CO[C@@H]2CCOC2)nn1` [Compound 63, (R)-5-Chloro-3-methyl-2-(6-(((tetrahydrofuran-3-yl)oxy)methyl)pyridazin-3-yl)phenol], the IC50 with THP-1 was 0.5 to 1 µM; in assay [1] it was below 0.5 µM.

As to `Cc1cc(Cl)cc(O)c1-c1ccc(CO[C@H]2CCOC2)nn1` [Compound 64, (S)-5-Chloro-3-methyl-2-(6-(((tetrahydrofuran-3-yl)oxy)methyl)pyridazin-3-yl)phenol], the IC50 (in the assay on THP-1; in assay [1]) was below 0.5 µM in each case.

In the case of `Cc1cc(Cl)cc(O)c1-c1ccc(COC2COC2)nn1` [Compound 65, 5-Chloro-3-methyl-2-(6-((oxetan-3-yloxy)methyl)pyridazin-3-yl)phenol], the IC50 is 0.5 to 1 µM with THP-1 and below 0.5 µM in assay [1].

Take `Cc1cc(Cl)cc(O)c1-c1ccc(CN[C@@H]2CCC(=O)N(C)C2)nn1` [Compound 66, (R)-5-(((6-(4-Chloro-2-hydroxy-6-methylphenyl)pyridazin-3-yl)methyl)amino)-1-methylpiperidin-2-one]: the values for the 50% inhibitory concentration (IC50) (in the assay with THP-1; in assay [1]) were 1 to 3 µM and 0.5 to 1 µM, respectively.

In the case of `Cc1cc(Cl)cc(O)c1-c1ccc(CN2CCOC2=O)nn1` [Compound 67, 3-((6-(4-Chloro-2-hydroxy-6-methylphenyl)pyridazin-3-yl)methyl)oxazolidin-2-one], the half-maximal inhibitory concentration (IC50) (in the assay with THP-1; in assay [1]) was below 0.5 µM in each case.

Take `CC(=O)N1CCC(OCc2ccc(-c3c(C)cc(Cl)cc3O)nn2)C1` (stereo not drawn) [Compound 68, 1-(3-((6-(4-Chloro-2-hydroxy-6-methylphenyl)pyridazin-3-yl)methoxy)pyrrolidin-1-yl)ethan-1-one]: the IC50 (with THP-1; in assay [1]) was 0.5 to 1 µM each time.

`Oc1cc(Cl)cc(F)c1-c1ccc(CNC2CCOCC2)nn1` [Compound 69, 5-Chloro-3-fluoro-2-(6-(((tetrahydro-2H-pyran-4-yl)amino)methyl)pyridazin-3-yl)phenol hydrochloride]: the IC50 (in the assay with THP-1; in assay [1]) was 3 to 10 µM each time.

`Cc1cc(OC(F)F)cc(O)c1-c1ccc(CNC2CCOCC2)nn1` [Compound 70, 5-(Difluoromethoxy)-3-methyl-2-(6-(((tetrahydro-2H-pyran-4-yl)amino)methyl)pyridazin-3-yl)phenol]: the IC50 (in the assay with THP-1; in assay [1]) was 1 to 3 µM each time.

For the compound `Cc1cc(C(F)(F)F)cc(O)c1-c1ccc(CNC2CCN(C)C2)nn1` (stereo not drawn) [Compound 71, 3-Methyl-2-(6-(((1-methylpyrrolidin-3-yl)amino)methyl)pyridazin-3-yl)-5-(trifluoromethyl)phenol dihydrochloride], the IC50 with THP-1 was 1 to 3 µM; in assay [1], 0.5 to 1 µM.

As to `CC(=O)N1CC[C@@H](NCc2ccc(-c3c(C)cc(Cl)cc3O)nn2)C1` [Compound 72, (R)-1-(3-(((6-(4-Chloro-2-hydroxy-6-methylphenyl)pyridazin-3-yl)methyl)amino)pyrrolidin-1-yl)ethan-1-one], the figures for the IC50 (with THP-1; in assay [1]) were 1 to 3 µM and 0.5 to 1 µM, respectively.

As to `CC(=O)N1CC[C@H](NCc2ccc(-c3c(C)cc(Cl)cc3O)nn2)C1` [Compound 73, (S)-1-(3-(((6-(4-Chloro-2-hydroxy-6-methylphenyl)pyridazin-3-yl)methyl)amino)pyrrolidin-1-yl)ethan-1-one], the IC50 (with THP-1; in assay [1]) was below 0.5 µM each time.

Regarding `Cc1cc(C(F)(F)F)cc(O)c1-c1ccc(CNc2ncccn2)nn1` [Compound 74, 3-Methyl-2-(6-((pyrimidin-2-ylamino)methyl)pyridazin-3-yl)-5-(trifluoromethyl)phenol], the IC50 (with THP-1; in assay [1]) was 1 to 3 µM throughout.

On to `Cc1cc(C(F)(F)F)cc(O)c1-c1ccc(CNc2ccncn2)nn1` [Compound 75, 3-Methyl-2-(6-((pyrimidin-4-ylamino)methyl)pyridazin-3-yl)-5-(trifluoromethyl)phenol hydrochloride], for which the half-inhibitory concentration (IC50) in the assay on THP-1 is below 0.5 µM; in assay [1], 0.5 to 1 µM.

Consider `Cc1cc(C(F)(F)F)cc(O)c1-c1ccc(CNCC2CCCN2C)nn1` (stereo not drawn) [Compound 76, 3-Methyl-2-(6-((((1-methylpyrrolidin-2-yl)methyl)amino)methyl)pyridazin-3-yl)-5-(trifluoromethyl)phenol dihydrochloride], for which the IC50 (in the assay on THP-1; in assay [1]) was 1 to 3 µM in each case.

Regarding `Cc1cc(C(F)(F)F)cc(O)c1-c1ccc(CNCC2CCN(C)C2)nn1` (stereo not drawn) [Compound 77, 3-Methyl-2-[6-({[(1-methylpyrrolidin-3-yl)methyl]amino}methyl)pyridazin-3-yl]-5-(trifluoromethyl)phenol dihydrochloride], the IC50 (in the assay on THP-1; in assay [1]) was 1 to 3 µM each time.

With `Cc1cc(C(F)(F)F)cc(O)c1-c1ccc(CNc2ccccn2)nn1` [Compound 78, 3-Methyl-2-(6-{[(pyridin-2-yl)amino]methyl}pyridazin-3-yl)-5-(trifluoromethyl)phenol], the half-maximal inhibitory concentration (IC50) (in the assay with THP-1; in assay [1]) was at least 10 µM each time.

In the case of `Cc1cc(C(F)(F)F)cc(O)c1-c1ccc(CNc2cccnc2)nn1` [Compound 79, 3-Methyl-2-(6-{[(pyridin-3-yl)amino]methyl}pyridazin-3-yl)-5-(trifluoromethyl)phenol], the IC50 (in the assay on THP-1; in assay [1]) was 0.5 to 1 µM throughout.
